Experimental data: patent US10550130B2, “Benzo-thiazolo-imidazole compounds and uses thereof” (KING SAUD UNIVERSITY, priority 2015, dated 2020)

What was measured:
Type in all cases: cell-based
SP cells of MCF-7 cells = test: Side population (SP) cell fraction by flow cytometry; details: Homo sapiens, MCF7, 24 h, normal culture conditions, read-out: IC50, SP cell inhibition
Description: (§1) It is known that one of the properties of stem/progenitor cells is their ability to survive under anchorage-independent conditions and generate mammospheres, which are composed of a small number of stem cells. Given that CSCs generally make up for a small minority of the cells within cancer cell populations, the dye DyeCycle Violet was used to isolate SP cells (side population cells; the side population is enriched for stem/progenitor cells), through a BD FACSAria™ cell sorter. Subsequently, the isolated SP cells were used in a Mammosphere Formation Assay. SP cells of MCF-7 and BT-474 formed more mammospheres than non-SP cells (see FIG. 4A).
Next, the effects of the compound KSA-101696 in SP cells under normal culture conditions was evaluated.

SKBR3 = test: Cell proliferation by 3H-thymidine uptake assay; details: Homo sapiens, SK-BR-3, 72 h, read-out: IC50, growth inhibition (3H-thymidine uptake)
Description: (§2) In vitro antitumor activity of the compound was assessed by ^3H-thymidine uptake. The cells were treated and they were about 60% confluent. Cells were seeded at 4×10^3 cells per well in a 96 well plate in DMEM containing 10% FBS for 24 h followed by treatment with control media (0.1% DMSO) or media containing different concentration of the compound incubated for 72 h at 37° C. in 5% CO2. Cells were labelled by addition of ^3H-thymidine (Amersham, Chiltern Hills, London, UK) at 1 μCi/well for 18 h before harvesting. ^3H-thymidine uptake was measured using a 1450 Micro Beta PLUS liquid scintillation counter (Wallac, Waltham, Mass., USA).
(§3) In another experiment, the in vitro antitumor activity of the compound was assessed by a 3H-thymidine uptake experiment. To this end, cells of the tumor cell lines MCF-7, SKBR3 and MDA-MB-468 were seeded at 4×10^3 cells per well in a 96 well plate in DMEM containing 10% FBS for 24 h followed by treatment with control media (0.1% DMSO) or media containing different concentration of the compound (5 μM, 10 μM, 20 μM, 40 μM or 80 μM final concentration of KSA-101696) and incubated for 72 h at 37° C. in 5% CO2. At about 60% confluency, cells were labelled by addition of 3H-thymidine (Amersham, Chiltern Hills, London, UK) at 1 μCi/well for 18 h before harvesting. 3H-thymidine uptake was measured using a 1450 Micro Beta PLUS liquid scintillation counter (Wallac, Waltham, Mass., USA).

MCF-7 = test: Cell proliferation by 3H-thymidine uptake assay; details: Homo sapiens, MCF7, 72 h, read-out: IC50, growth inhibition (3H-thymidine uptake)
Description: as §2, §3

MDA-MB-468 [1] = test: Cell proliferation by 3H-thymidine uptake assay; details: Homo sapiens, 72 h, read-out: IC50, growth inhibition (3H-thymidine uptake)
Description: as §2, §3

SKBR-3 = test: Annexin V binding by flow cytometry (apoptosis)
Description: (§4) It is known that loss of phospholipid asymmetry of the plasma membrane is an early event of apoptosis. The annexin V binds to negatively charged phospholipids, like phosphatidylserine. During apoptosis, the cells react to annexin V once chromatin condenses but before the plasma membrane loses its ability to exclude propidium iodide (PI).
(§5) Annexin-V staining was performed by using Vybrant Apoptosis Assay Kit #2 (Molecular Probes) following the manufacturer's recommendations. Annexin-V stained cells were analyzed by flow cytometry, measuring the fluorescence emission between 515 nm to 545 nm.
(§6) To evaluate the selective-apoptotic effect of the compound in cancer cells but not normal cells, the cancer cell lines SKBR3, MDA-MB-468, and normal cells MCF-10 A, HSFN1 (human foreskin cells) and BM4 (bone marrow derived mesenchymal stem cells) were used. […] Upon treatment of cells with 20 μM for 48 h, cells were stained with Annexin-V and PI and binding of Annexin-V and PI to the cells was determined by flow cytometry.
(§7) In a next step, it was investigated whether there was a correlation between Numb protein expression and sensitivity of a cell line to the apoptotic effects of KSA-101696. Apoptotic cells were determined by Annexin-V staining as described in Example 1.

MDA-MB-468 [2] = test: Annexin V binding by flow cytometry (apoptosis)
Description: as §4, §5, §6, §7

SP cells of BT-474 = test: Mammosphere formation assay; details: 5 μM, 7 days old mammospheres
Description: (§8) Cell were harvested and counted by using trypan blue to exclude the dead cells. Cells cultured in suspension (1000 cells/100 μL) in serum-free mammary epithelium basal medium, supplemented with B27 supplement 1:50; (GIBCO), 20 ng/mL EGF (epidermal growth factor; Preprotech), 5 μg/mL insulin (Sigma), 1% Antibiotic-Antimycotic (GIBCO) and 0.5 μg/ml hydrocortisone (Sigma), as described previously (Dontu et al.). Mammospheres were allowed to grow for 7 days, then treated for 72 h by either control media (0.1% DMSO) or media containing different concentrations of the compound. Mammospheres were counted on a Leitz Labovert inverted Microscope. Mammosphere size was measured and a picture was taken on a Evos transmitted light microscope.
as §1
(§9) Treatment of 7 days old mammospheres of both cell lines with 5 μM of KSA-101696 decreased the number of mammospheres formed by 50% compared to DMSO treatment (FIG. 4A).

SP cells of MCF-7 = test: Mammosphere formation assay
Description: as §8, §1, §9

MDA-MB-231 cells = test: Migration assay; details: Homo sapiens, 2.5 μM to 20 μM, read-out: IC50, migration capacity
Description: To assess the metastatic potential of tumor cells, their migration and invasion was evaluated using the 24-well BD BioCoat Matrigel Invasion Chamber as per the manufacturer guideline (BD Bioscience). In brief, 750 μl of migration buffer (serum-free media with or without treatment) or chemoattractants (serum-containing media) were added to the lower wells. Cells were washed three times in migration media and 500 μl (1-2×10^5) of cells were added to the upper wells separated by an 8 micron pore size PET membrane with a thin layer of matrigel basement membrane matrix (for invasion) or without (for migration). The membranes were stained with Diff Quick stain (Fisher Scientific) after removing the non-migrated cells from the top of the membrane with Q-tips. After air drying, the membranes were cut and mounted on slides with oil and cells that had migrated to the underside of the filter were counted using a light microscope (Zeiss Axio Observer) in five randomly selected fields (magnification: 40×). Each assay was performed in triplicate and repeated at least five times. The results were expressed as mean±SD of migrating cells per field counted (FIGS. 6A-6B).

## COc1ccc(-c2csc3nc4ccccc4n23)cc1 [KSA-101696, 3-(4-methoxyphenyl)benzo[4,5]imidazo[2,1-b]thiazole]
SP cells of MCF-7 cells
  IC50: ~0.3 µM
SKBR3
  IC50: 7.5 µM
MCF-7
  IC50: ~5 µM
MDA-MB-468 [1]
  IC50: ~2.5 µM
SKBR-3; SKBR-3, low levels of Numb expression, FIG. 9B
  apoptosis (Annexin-V) in relation to Numb expression: increased apoptosis
SKBR-3; SKBR-3, 20 μM, 48 h
  apoptosis (Annexin-V and PI): induced apoptosis
MDA-MB-468 [2]; MDA-MB-468, low levels of Numb expression, FIG. 9B
  apoptosis (Annexin-V) in relation to Numb expression: increased apoptosis
MDA-MB-468 [2]; MDA-MB-468, 20 μM, 48 h
  apoptosis (Annexin-V and PI): induced apoptosis
SP cells of BT-474
  decrease of number of mammospheres formed compared to DMSO: 50%
SP cells of MCF-7; MCF-7, 5 μM, 7 days old mammospheres
  decrease of number of mammospheres formed compared to DMSO: 50%
SP cells of MCF-7; cell line not specified (FIG. 4B)
  size of treated mammospheres: reduction in the size
MDA-MB-231 cells
  IC50: ~7.5 µM
